Data: patent publication US20240132431A1, “METHOD FOR ALKYLATING ACIDIC FUNCTIONAL GROUP” (Chugai Seiyaku Kabushiki Kaisha, priority 2021, published 2024)

Biological target: T1, Bcl-2 protein (Recombinant Human Bcl-2 Protein) (Homo sapiens, UniProt P10415)
T1 construct: purchased Novus NBP2-34889
Assay: Binding evaluation of mixture library compounds to Bcl-2 using AS-MS (affinity selection mass spectrometry)
Conditions: AS-MS on the mixture of 1200 library compounds, ASMS Ratio(%)=(A−C)/B×100; for ASMS ratio (%) n = 1: replicate n = 1; for ASMS ratio (%) n = 2: replicate n = 2
Procedure, shortened: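 Bcl-2 binding is scored from LC/MS signal retained with protein through gel-filtration spin columns, normalised to unfiltered and protein-free controls. Incubation: 20 μM protein, […] per compound, 1 h, 23° C.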

T1 sequence (P10415 whole entry): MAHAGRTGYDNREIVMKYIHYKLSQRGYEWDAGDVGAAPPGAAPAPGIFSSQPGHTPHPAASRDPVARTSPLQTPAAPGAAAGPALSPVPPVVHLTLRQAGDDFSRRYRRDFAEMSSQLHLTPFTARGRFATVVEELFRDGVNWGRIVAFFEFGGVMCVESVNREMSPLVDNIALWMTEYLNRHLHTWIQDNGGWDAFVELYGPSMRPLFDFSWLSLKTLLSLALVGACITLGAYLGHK

Row | SMILES | ASMS ratio (%) n = 1 [%] | ASMS ratio (%) n = 2 [%]
1 | CCOc1cccc(-c2cc(C(=O)N3CCN(c4ccc(C(=O)N(C)CC56CC7CC(CC(C7)C5)C6)nn4)CC3)cc(C(C)(C)C)c2)c1 [B3A015-01, N-(1-Adamantylmethyl)-6-[4-[3-tert-butyl-5-(3-ethoxyphenyl)benzoyl]piperazin-1-yl]-N-methylpyridazine-3-carboxamide] | 8.9 | 3.0
2 | CCOc1cncc(-c2cc(C(=O)N3CCN(c4ccc(C(=O)N(C)CC56CC7CC(CC(C7)C5)C6)nn4)CC3)cc(C(C)(C)C)c2)c1 [B3A016-01, N-(1-Adamantylmethyl)-6-[4-[3-tert-butyl-5-(5-ethoxypyridin-3-yl)benzoyl]piperazin-1-yl]-N-methylpyridazine-3-carboxamide] | 2.8 | 0.1
3 | CCOc1cccc(-c2cc(C(=O)N3CCN(c4ccc(C(=O)N(C)CC56CC7CC(CC(C7)C5)C6)nn4)CC3)cc(C(F)(F)F)c2)c1 [B3A017-01, N-(1-Adamantylmethyl)-6-[4-[3-(3-ethoxyphenyl)-5-(trifluoromethyl)benzoyl]piperazin-1-yl]-N-methylpyridazine-3-carboxamide] | 6.9 | −6.3
4 | CCOc1cncc(-c2cc(C(=O)N3CCN(c4ccc(C(=O)N(C)CC56CC7CC(CC(C7)C5)C6)nn4)CC3)cc(C(F)(F)F)c2)c1 [B3A018-01, N-(1-Adamantylmethyl)-6-[4-[3-(5-ethoxypyridin-3-yl)-5-(trifluoromethyl)benzoyl]piperazin-1-yl]-N-methylpyridazine-3-carboxamide] | 5.0 | 1.8
5 | CCOc1cccc(-c2cnn(-c3cc(C(=O)N4CCN(c5ccc(C(=O)N(C)CC67CC8CC(CC(C8)C6)C7)nn5)CC4)cc(C(F)(F)F)c3)c2)c1 [B3A021-01, N-(1-Adamantylmethyl)-6-[4-[3-[4-(3-ethoxyphenyl)pyrazol-1-yl]-5-(trifluoromethyl)benzoyl]piperazin-1-yl]-N-methylpyridazine-3-carboxamide] | 12.5 | −8.4
6 | CCOc1cncc(-c2cnn(-c3cc(C(=O)N4CCN(c5ccc(C(=O)N(C)CC67CC8CC(CC(C8)C6)C7)nn5)CC4)cc(C(F)(F)F)c3)c2)c1 [B3A022-01, N-(1-Adamantylmethyl)-6-[4-[3-[4-(5-ethoxypyridin-3-yl)pyrazol-1-yl]-5-(trifluoromethyl)benzoyl]piperazin-1-yl]-N-methylpyridazine-3-carboxamide] | 4.9 | 7.2
7 | CCOc1cccc(-c2csc(C(=O)N3CCN(c4ccc(C(=O)N(C)CC56CC7CC(CC(C7)C5)C6)cc4)CC3)c2)c1 [B3A023-01, N-(1-Adamantylmethyl)-4-[4-[4-(3-ethoxyphenyl)thiophene-2-carbonyl]piperazin-1-yl]-N-methylbenzamide] | 2.4 | 1.7
8 | CCOc1cncc(-c2csc(C(=O)N3CCN(c4ccc(C(=O)N(C)CC56CC7CC(CC(C7)C5)C6)cc4)CC3)c2)c1 [B3A024-01, N-(1-Adamantylmethyl)-4-[4-[4-(5-ethoxypyridin-3-yl)thiophene-2-carbonyl]piperazin-1-yl]-N-methylbenzamide] | 1.6 | −0.4
9 | CCOc1cccc(-c2ccc(C(=O)N3CCN(c4ccc(C(=O)N(C)CC56CC7CC(CC(C7)C5)C6)cc4)CC3)cc2C)c1 [B3A025-01, N-(1-Adamantylmethyl)-4-[4-[4-(3-ethoxyphenyl)-3-methylbenzoyl]piperazin-1-yl]-N-methylbenzamide] | 15.7 | −19.6
10 | CCOc1cncc(-c2ccc(C(=O)N3CCN(c4ccc(C(=O)N(C)CC56CC7CC(CC(C7)C5)C6)cc4)CC3)cc2C)c1 [B3A026-01, N-(1-Adamantylmethyl)-4-[4-[4-(5-ethoxypyridin-3-yl)-3-methylbenzoyl]piperazin-1-yl]-N-methylbenzamide] | 4.4 | 0.6
